Here are results for 20 compounds from patent publication US8399452B2, “Dibenzo[b,f][1,4]oxazepin-11-yl-N-hydroxybenzamides as HDAC inhibitors” (Methylgene Inc., priority 2006, dated 2013).

Each structure is given as a SMILES string.

One assay has as its target histone deacetylase (HDAC Enzyme). Nature of the assay: Inhibition of Histone Deacetylase Enzymatic Activity (Boc-Lys(Ac)-AMC, Fluor-de-Lys developer). The assay is classed as biochemical. The note with it: Table 10; read-out: HDAC Inhibition (IC50 μM) HDAC Enzyme. The method, then:
The following protocol is used to assay the compounds of the invention.
The mixture is pre-incubated for 5 minutes at room temperature. The reaction is started by bringing the temperature to 37° C. and adding 16 μl substrate. Total reaction volume is 50 μl.
In the Tables 8, 9 and 10, A≦[…]<B≦0.1 μM; 0.1 μM<C≦1 μM; and 1 μM<D≦10 μM.
One may read the IC50 as the concentration at which inhibition is half-maximal. Consider `O=C(NO)c1ccc(CN2c3ccccc3C=Cc3ccccc32)cc1` [(Z)-4-((5H-dibenzo[b,f]azepin-5-yl)methyl)-N-hydroxybenzamide], for which the IC50 was less than 0.05 µM. Still for that read-out and setting: the value for `O=C(CCCCN1c2ccccc2C=Cc2ccccc21)NO` [(Z)-5-(5H-dibenzo[b,f]azepin-5-yl)-N-hydroxypentanamide] was 0.1 to 1 µM; that for `O=C(CCCCCN1c2ccccc2C=Cc2ccccc21)NO` [(Z)-6-(5H-dibenzo[b,f]azepin-5-yl)-N-hydroxyhexanamide] was less than 0.05 µM; that for `O=C(CCCCCC(=O)N1c2ccccc2C=Cc2ccccc21)NO` [(Z)-7-(5H-dibenzo[b,f]azepin-5-yl)-N-hydroxy-7-oxoheptanamide] was less than 0.05 µM. For the compound `O=C(CCCCCCN1c2ccccc2C=Cc2ccccc21)NO` [(Z)-7-(5H-dibenzo[b,f]azepin-5-yl)-N-hydroxyheptanamide], the IC50 is less than 0.05 µM. Regarding `O=C(CCCCCCC(=O)N1c2ccccc2C=Cc2ccccc21)NO` [(Z)-8-(5H-dibenzo[b,f]azepin-5-yl)-N-hydroxy-8-oxooctanamide], the IC50 lay in the range of 0.1 to 1 µM. For the compound `CN1C(=O)CN=C(c2ccccc2)c2ccc(CCC(=O)NO)cc21` [(Z)-N-hydroxy-3-(1-methyl-2-oxo-5-phenyl-2,3-dihydro-1H-benzo[e][1,4]diazepin-8-yl)propanamide], the IC50 lay within 0.1 to 1 µM. Same read-out and setting: as for `CN1C(=O)CN=C(c2ccc(C(=O)NO)cc2)c2ccccc21` [(Z)-N-hydroxy-4-(1-methyl-2-oxo-2,3-dihydro-1H-benzo[e][1,4]diazepin-5-yl)benzamide], the figure is 0.1 to 1 µM.

Staying with this assay, now noted: read-out: HDAC Inhibtion (IC50 μM) HDAC Enzyme.
Take `O=C(NO)c1ccc(C2=Nc3ccccc3N(C3CC3)c3ncccc32)cc1` [(Z)-4-(11-cyclopropyl-11H-benzo[b]pyrido[2,3-e][1,4]diazepin-5-yl)-N-hydroxybenzamide]: the IC50 was less than 0.05 µM. Same read-out and setting: as for `CCN1c2ccccc2N=C(c2ccc(C(=O)NO)cc2)c2cccnc21` [(Z)-4-(11-ethyl-11H-benzo[b]pyrido[2,3-e][1,4]diazepin-5-yl)-N-hydroxybenzamide], the figure is less than 0.05 µM; as for `O=C(NO)c1ccc(C2=Nc3ccccc3Oc3ncccc32)cc1` [(Z)-4-(benzo[b]pyrido[3,2-f][1,4]oxazepin-5-yl)-N-hydroxybenzamide], 0.05 to 0.1 µM; as for `O=C(NO)c1ccc(C2=Nc3ccccc3Oc3cnccc32)cc1` [(Z)-4-(benzo[b]pyrido[4,3-f][1,4]oxazepin-5-yl)-N-hydroxybenzamide], 0.1 to 1 µM. Turning to `O=C(NO)c1ccc(C2=Nc3cccnc3Oc3ccccc32)cc1` [(Z)-4-(benzo[f]pyrido[2,3-b][1,4]oxazepin-6-yl)-N-hydroxybenzamide], the IC50 was less than 0.05 µM.

For the compound `O=C(NO)c1ccc(C2=Nc3ccsc3Oc3ccccc32)cc1` [(Z)-4-(benzo[f]thieno[2,3-b][1,4]oxazepin-5-yl)-N-hydroxybenzamide], the IC50 was 0.1 to 1 µM. Same read-out and setting: the value for `O=C(NO)c1ccc(C2=Nc3ccccc3Oc3ccccc32)cc1F` [(Z)-4-(dibenzo[b,f][1,4]oxazepin-11-yl)-2-fluoro-N-hydroxybenzamide] was 0.1 to 1 µM; that for `O=C(NO)c1ccc(C2=Nc3ccccc3Oc3ccccc32)cc1` [(Z)-4-(dibenzo[b,f][1,4]oxazepin-11-yl)-N-hydroxybenzamide] was less than 0.05 µM; that for `O=C(NO)c1ccc(C2=Nc3ccccc3Sc3ccccc32)cc1` [(Z)-4-(dibenzo[b,f][1,4]thiazepin-11-yl)-N-hydroxybenzamide] was 0.1 to 1 µM. On the same count and under the same terms, as for `O=C(NO)c1ccc(C2=Nc3ccccc3Oc3c[n+]([O-])ccc32)cc1` [(Z)-5-(4-(hydroxycarbamoyl)phenyl)benzo[b]pyrido[4,3-f][1,4]oxazepine 2-oxide], the figure is 0.1 to 1 µM; as for `COc1cccc2c1C(c1ccc(C(=O)NO)cc1)=Nc1ccccc1O2` [(Z)-N-hydroxy-4-(1-methoxydibenzo[b,f][1,4]oxazepin-11-yl)benzamide], 0.1 to 1 µM.

Consider `O=C(NO)c1ccc(C2=Nc3ccc(C(F)(F)F)nc3Oc3ccccc32)cc1` [(Z)-N-hydroxy-4-(2-(trifluoromethyl)benzo[f]pyrido[2,3-b][1,4]oxazepin-6-yl)benzamide], for which the IC50 is 0.05 to 0.1 µM.
